Laboratory results as given in patent US20260284208A1, “SYSTEM” (Oxford University Innovation Limited, priority 2023, published 2026).

Tested on: library of 8,380 IKZF3 degrons (ZF-eGFP/mCherry reporter) in Jurkat cells
Assay: Pooled library screen (FACS, NGS, limma voom LogFC of positive vs negative read counts)
Type: cell-based, human
Method in brief: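 Cells were lentivirally transduced at MOI <0.3, and mCherry+ cells were sorted 6 days later. Eight days after sorting, cells were treated with DMSO or thalidomide analog for 18 h at 37 °C. mCherry+GFPlow (DMSO-set gate, DAPI-excluded) and remaining cells were sorted, and degrons were PCR-amplified from gDNA and sequenced (>600× coverage, 3 biological replicates).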

SMILES: O=C1CCC(N2C(=O)c3ccc(N4CCOCC4)cc3C2=O)C(=O)N1 (centres unmarked) [B03]
- B03_logFC (Degron-ID 4175, SEQ ID NO 3945, 46F_47W_49E_50Q_52G_53A_54S_55F_67L): 2.767
- B03_logFC (Degron-ID 4189, SEQ ID NO 3997, 46F_47W_49E_50V_52G_53A_54L_55F_67L): 2.69
- B03_logFC (Degron-ID 4212, SEQ ID NO 4019, 46F_47W_49N_50I_52G_53A_54P_55F_67L): 2.659
- B03_logFC (Degron-ID 4216, SEQ ID NO 3948, 46F_47W_49N_50I_52G_53A_54T_55F_67L): 2.757
- B03_logFC (Degron-ID 4217, SEQ ID NO 3953, 46F_47W_49N_50I_52G_53A_54V_55F_67L): 2.75
- B03_logFC (Degron-ID 4265, SEQ ID NO 3969, 46F_47W_49P_50I_52G_53A_54G_55F_67L): 2.729
- B03_logFC (Degron-ID 4267, SEQ ID NO 4028, 46F_47W_49P_50I_52G_53A_54I_55F_67L): 2.643
- B03_logFC (Degron-ID 4270, SEQ ID NO 3946, 46F_47W_49P_50I_52G_53A_54M_55F_67L): 2.765
- B03_logFC (Degron-ID 4279, SEQ ID NO 3996, 46F_47W_49P_50I_52G_53A_54Y_55F_67L): 2.691
- B03_logFC (Degron-ID 4307, SEQ ID NO 3975, 46F_47W_49P_50V_52G_53A_54I_55F_67L): 2.72
- B03_logFC (Degron-ID 4366, SEQ ID NO 3950, 46F_47Y_49D_50V_52G_53A_54H_55F_67L): 2.757
- B03_logFC (Degron-ID 4368, SEQ ID NO 4018, 46F_47Y_49D_50V_52G_53A_54K_55F_67L): 2.66
- B03_logFC (Degron-ID 4456, SEQ ID NO 4010, 46F_47Y_49N_50I_52G_53A_54T_55F_67L): 2.672
- B03_logFC (Degron-ID 4503, SEQ ID NO 4007, 46F_47Y_49P_50I_52G_53A_54E_55F_67L): 2.675
- B03_logFC (Degron-ID 4510, SEQ ID NO 3967, 46F_47Y_49P_50I_52G_53A_54M_55F_67L): 2.732
- B03_logFC (Degron-ID 4544, SEQ ID NO 4004, 46F_47Y_49P_50V_52G_53A_54F_55F_67L): 2.679
- B03_logFC (Degron-ID 4559, SEQ ID NO 4033, 46F_47Y_49P_50V_52G_53A_54Y_55F_67L): 2.636
- B03_logFC (Degron-ID 6474, SEQ ID NO 3991, 46L_47A_49P_50I_52G_53F_54R_55C_67L): 2.7
- B03_logFC (Degron-ID 6480, SEQ ID NO 4002, 46L_47C_49P_50I_52G_53F_54A_55C_67L): 2.685
- B03_logFC (Degron-ID 6494, SEQ ID NO 4012, 46L_47C_49P_50I_52G_53F_54R_55C_67L): 2.668
- B03_logFC (Degron-ID 6496, SEQ ID NO 3983, 46L_47C_49P_50I_52G_53F_54T_55C_67L): 2.713
- B03_logFC (Degron-ID 6544, SEQ ID NO 3994, 46L_47F_49P_50I_52G_53F_54F_55C_67L): 2.694
- B03_logFC (Degron-ID 6545, SEQ ID NO 3958, 46L_47F_49P_50I_52G_53F_54G_55C_67L): 2.743
- B03_logFC (Degron-ID 6547, SEQ ID NO 3973, 46L_47F_49P_50I_52G_53F_54I_55C_67L): 2.724
- B03_logFC (Degron-ID 6559, SEQ ID NO 3972, 46L_47F_49P_50I_52G_53F_54Y_55C_67L): 2.725
- B03_logFC (Degron-ID 6579, SEQ ID NO 3987, 46L_47G_49P_50I_52G_53F_54Y_55C_67L): 2.704
- B03_logFC (Degron-ID 6581, SEQ ID NO 3985, 46L_47H_49P_50I_52G_53F_54C_55C_67L): 2.71
- B03_logFC (Degron-ID 6593, SEQ ID NO 4008, 46L_47H_49P_50I_52G_53F_54Q_55C_67L): 2.674
- B03_logFC (Degron-ID 6600, SEQ ID NO 3995, 46L_47I_49P_50I_52G_53F_54A_55C_67L): 2.692
- B03_logFC (Degron-ID 6715, SEQ ID NO 3949, 46L_47Q_49P_50I_52G_53F_54S_55C_67L): 2.757
- B03_logFC (Degron-ID 6759, SEQ ID NO 4005, 46L_47S_49P_50I_52G_53F_54Y_55C_67L): 2.677
- B03_logFC (Degron-ID 6761, SEQ ID NO 4009, 46L_47T_49P_50I_52G_53F_54C_55C_67L): 2.672
- B03_logFC (Degron-ID 6793, SEQ ID NO 3980, 46L_47V_49P_50I_52G_53F_54Q_55C_67L): 2.717
- B03_logFC (Degron-ID 6803, SEQ ID NO 4032, 46L_47W_49P_50I_52G_53F_54E_55C_67L): 2.637
- B03_logFC (Degron-ID 6807, SEQ ID NO 3992, 46L_47W_49P_50I_52G_53F_54I_55C_67L): 2.695
- B03_logFC (Degron-ID 7568, SEQ ID NO 3954, 46F_47W_49E_50I_52G_53R_54K_55F_67L): 2.75
- B03_logFC (Degron-ID 7574, SEQ ID NO 3993, 46F_47W_49E_50I_52G_53R_54R_55F_67L): 2.695
- B03_logFC (Degron-ID 7699, SEQ ID NO 3976, 46L_47F_49E_50I_52G_53F_54Y_55C_67L): 2.72
- B03_logFC (Degron-ID 7894, SEQ ID NO 3947, 46L_47S_49E_50I_52G_53F_54R_55C_67L): 2.76
- B03_logFC (Degron-ID 7920, SEQ ID NO 3990, 46L_47V_49E_50I_52G_53F_54A_55C_67L): 2.702
- B03_logFC (Degron-ID 7971, SEQ ID NO 3955, 46L_47Y_49E_50I_52G_53F_54N_55C_67L): 2.749
- B03_logFC (degron 1074 (SEQ ID NO 3496) 46F_47F_49E_50V_52G_53A_54R_55F_67L): 3.71
- B03_logFC (degron 4088 (SEQ ID NO 3502) 46F_47W_49D_50I_52G_53A_54K_55F_67L): 3.696
- B03_logFC (degron 4091 (SEQ ID NO 3497) 46F_47W_49D_50I_52G_53A_54N_55F_67L): 3.708
- B03_logFC (degron 4395 (SEQ ID NO 3500) 46F_47Y_49E_50I_52G_53A_54S_55F_67L): 3.7
- B03_logFC (degron 4420 (SEQ ID NO 3499) 46F_47Y_49E_50V_52G_53A_54A_55F_67L): 3.704
- B03_logFC (degron 4551 (SEQ ID NO 3503) 46F_47Y_49P_50V_52G_53A_54N_55F_67L): 3.692
- B03_logFC (degron 6814 (SEQ ID NO 3498) 46L_47W_49P_50I_52G_53F_54R_55C_67L): 3.704
- B03_logFC (degron 7973 (SEQ ID NO 3495) 46L_47Y_49E_50I_52G_53F_54Q_55C_67L): 3.711
- B03_logFC (degron 7975 (SEQ ID NO 3501) 46L_47Y_49E_50I_52G_53F_54S_55C_67L): 3.698
